Assays:
[1] = Blood plasma levels (pharmacokinetics) after i.v. injection in rats; type: in vivo, Sprague Dawley rats; details: for blood plasma levels of parent compound: over 24 h
Protocol: Blood plasma levels of psorospermin over 24 h after a 5 mg/Kg injection i.v. in Sprague Dawley rats were measured. Blood plasma levels of 5-methoxy-psorospermin over 24 h after a 5 mg/Kg injection i.v. in Sprague Dawley rats were measured.

various tumor cell lines = assay: MTS cytotoxicity / cell viability assays with various tumor cell lines; type: cell-based
Text: FIG. 1 illustrates a comparison of (R,R)-psorospermin with (R,R)-5-methoxy-psorospermin, (R,S)-5-methoxy-psorospermin, (S,R)-5-methoxy-psorospermin and (S,S)-5-methoxy-psorospermin in cell viability assays with various tumor cell lines.
MTS cytotoxicity data was collected for a comparison of (R,R)-psorospermin with (R,R)-5-methoxy-psorospermin, (R,S)-5-methoxy-psorospermin, (S,R)-5-methoxy-psorospermin and (S,S)-5-methoxy-psorospermin in cell viability assays with various tumor cell lines, the results of which are shown in FIG. 1.

[2] = 5 mg/Kg injection i.v., Sprague Dawley rats

Row | SMILES | time for which a therapeutic dose is exhibited in rodents ([1]; 5 mg/Kg injection i.v., Sprague Dawley rats, FIG. 3) | blood plasma levels of parent compound [1, 2] | systemic presence ([1]; in comparison with 2′R,3′R psorospermin) | activity relative to stereoisomeric counterparts (various tumor cell lines; compared with (2R′, 3S′) or (2S′, 3S′) counterparts) | antitumor activity in a variety of cell lines (various tumor cell lines; variety of cell lines including those of solid tumors and lymphomas, compared with natural product psorospermin) | blood plasma levels of parent compound ([1]; 5 mg/Kg injection i.v., Sprague Dawley rats, listed as natural product)
1 | COc1cccc2c(=O)c3c(OC)cc4c(c3oc12)C[C@H]([C@@]1(C)CO1)O4 [(R,R)-5-Methoxypsorospermin, (2′R,3′R) 5-Methoxy Psorospermin] | exceeds two hours | prolonged measurable quantities of the parent with a good half life | prolonged systemic presence in comparison with 2′R,3′R psorospermin | more active than their (2R′, 3S′) or (2S′, 3S′) counterparts | comparable antitumor activity to that of the natural product psorospermin | –
2 | COc1cc2c(c3oc4c(O)cccc4c(=O)c13)C[C@H]([C@@]1(C)CO1)O2 [psorospermin, (2′R,3′R) Psorospermin] | – | Little parent compound can be detected within the first 24 h after dosing | – | – | – | could be barely detected at any time point
